Assay results as given in ChEMBL document CHEMBL1130709, “Synthesis and phototoxic property of tetra- and octa-glycoconjugated tetraphenylchlorins” (Bioorg Med Chem Lett, 1998).

assay: Photosensitizing ability was evaluated by the degradation of DPBF by singlet oxygen in DMSO solution at 27 degree Centigrade

| SMILES | k obs [s⁻¹] |
| --- | --- |
| OC[C@@H]1O[C@H](Oc2ccc(-c3c4nc(c(-c5ccc(O[C@@H]6O[C@H](CO)[C@@H](O)[C@H](O)[C@H]6O)cc5)c5nc(c(-c6ccc(O[C@@H]7O[C@H](CO)[C@@H](O)[C@H](O)[C@H]7O)cc6)c6ccc([nH]6)c(-c6ccc(O[C@H]7O[C@@H](CO)[C@H](O)[C@@H](O)[C@@H]7O)cc6)c6ccc3[nH]6)CC5)C=C4)cc2)[C@@H](O)[C@H](O)[C@H]1O | 0.0094 |
| OC[C@@H]1O[C@H](Oc2ccc(-c3c4nc(c(-c5ccc(O[C@@H]6O[C@H](CO)[C@H](O)[C@H](O)[C@H]6O)cc5)c5nc(c(-c6ccc(O[C@@H]7O[C@H](CO)[C@H](O)[C@H](O)[C@H]7O)cc6)c6ccc([nH]6)c(-c6ccc(O[C@H]7O[C@@H](CO)[C@@H](O)[C@@H](O)[C@@H]7O)cc6)c6ccc3[nH]6)CC5)C=C4)cc2)[C@@H](O)[C@H](O)[C@@H]1O | 0.0062 |
| OC[C@@H]1O[C@H](Oc2cc(O[C@H]3O[C@@H](CO)[C@H](O)[C@@H](O)[C@@H]3O)cc(-c3c4nc(c(-c5cc(O[C@@H]6O[C@H](CO)[C@@H](O)[C@H](O)[C@H]6O)cc(O[C@@H]6O[C@H](CO)[C@@H](O)[C@H](O)[C@H]6O)c5)c5nc(c(-c6cc(O[C@@H]7O[C@H](CO)[C@@H](O)[C@H](O)[C@H]7O)cc(O[C@@H]7O[C@H](CO)[C@@H](O)[C@H](O)[C@H]7O)c6)c6ccc([nH]6)c(-c6cc(O[C@@H]7O[C@H](CO)[C@@H](O)[C@H](O)[C@H]7O)cc(O[C@@H]7O[C@H](CO)[C@@H](O)[C@H](O)[C@H]7O)c6)c6ccc3[nH]6)CC5)C=C4)c2)[C@@H](O)[C@H](O)[C@H]1O | 0.011 |
| CC(=O)OC[C@@H]1O[C@H](Oc2ccc(-c3c4nc(c(-c5ccc(O[C@@H]6O[C@H](COC(C)=O)[C@@H](OC(C)=O)[C@H](OC(C)=O)[C@H]6OC(C)=O)cc5)c5nc(c(-c6ccc(O[C@@H]7O[C@H](COC(C)=O)[C@@H](OC(C)=O)[C@H](OC(C)=O)[C@H]7OC(C)=O)cc6)c6ccc([nH]6)c(-c6ccc(O[C@H]7O[C@@H](COC(C)=O)[C@H](OC(C)=O)[C@@H](OC(C)=O)[C@@H]7OC(C)=O)cc6)c6ccc3[nH]6)CC5)C=C4)cc2)[C@@H](OC(C)=O)[C@H](OC(C)=O)[C@H]1OC(C)=O | 0.012 |
| CC(=O)OC[C@@H]1O[C@H](Oc2cc(O[C@@H]3O[C@H](COC(C)=O)[C@@H](OC(C)=O)[C@H](OC(C)=O)[C@H]3OC(C)=O)cc(-c3c4nc(c(-c5cc(O[C@H]6O[C@@H](COC(C)=O)[C@H](OC(C)=O)[C@@H](OC(C)=O)[C@@H]6OC(C)=O)cc(O[C@H]6O[C@@H](COC(C)=O)[C@H](OC(C)=O)[C@@H](OC(C)=O)[C@@H]6OC(C)=O)c5)c5ccc([nH]5)c(-c5cc(O[C@H]6O[C@@H](COC(C)=O)[C@H](OC(C)=O)[C@@H](OC(C)=O)[C@@H]6OC(C)=O)cc(O[C@@H]6O[C@H](COC(C)=O)[C@@H](OC(C)=O)[C@H](OC(C)=O)[C@H]6OC(C)=O)c5)c5ccc([nH]5)c(-c5cc(O[C@@H]6O[C@H](COC(C)=O)[C@@H](OC(C)=O)[C@H](OC(C)=O)[C@H]6OC(C)=O)cc(O[C@@H]6O[C@H](COC(C)=O)[C@@H](OC(C)=O)[C@H](OC(C)=O)[C@H]6OC(C)=O)c5)c5nc3CC5)C=C4)c2)[C@@H](OC(C)=O)[C@H](OC(C)=O)[C@H]1OC(C)=O | 0.011 |
| CC(=O)OC[C@@H]1O[C@H](Oc2ccc(-c3c4nc(c(-c5ccc(O[C@@H]6O[C@H](COC(C)=O)[C@H](OC(C)=O)[C@H](OC(C)=O)[C@H]6OC(C)=O)cc5)c5nc(c(-c6ccc(O[C@@H]7O[C@H](COC(C)=O)[C@H](OC(C)=O)[C@H](OC(C)=O)[C@H]7OC(C)=O)cc6)c6ccc([nH]6)c(-c6ccc(O[C@H]7O[C@@H](COC(C)=O)[C@@H](OC(C)=O)[C@@H](OC(C)=O)[C@@H]7OC(C)=O)cc6)c6ccc3[nH]6)CC5)C=C4)cc2)[C@@H](OC(C)=O)[C@H](OC(C)=O)[C@@H]1OC(C)=O | 0.0068 |
